Laboratory results: ChEMBL document CHEMBL3392979, “Discovery and SAR study of c-Met kinase inhibitors bearing an 3-amino-benzo[d]isoxazole or 3-aminoindazole scaffold” (Bioorg Med Chem, 2015)

Key:
[1] = molecular target: T1, Hepatocyte growth factor receptor (Homo sapiens, UniProt P08581); test: Inhibition of purified recombinant c-MET (unknown origin) using poly (Glu, Tyr) substrate after 60 mins by ELISA
[2] = Antiproliferative activity against human EBC1 cells after 72 hrs; conditions: EBC-1, 72 h
[3] = molecular target: T2, Vascular endothelial growth factor receptor 2 (Homo sapiens, UniProt P35968); test: Inhibition of purified VEGFR2 (unknown origin) after 60 mins by ELISA
[4] = molecular target: Epidermal growth factor receptor (Homo sapiens) (UniProt P00533); test: Inhibition of purified EGFR (unknown origin) at 1 uM after 60 mins by ELISA
[5] = molecular target: ALK tyrosine kinase receptor (Homo sapiens) (UniProt Q9UM73); test: Inhibition of purified ALK (unknown origin) at 1 uM after 60 mins by ELISA
[6] = molecular target: Proto-oncogene tyrosine-protein kinase Src (Homo sapiens) (UniProt P12931); test: Inhibition of purified c-Src (unknown origin) at 1 uM after 60 mins by ELISA
[7] = molecular target: ALK tyrosine kinase receptor (Homo sapiens) (UniProt Q9UM73); test: Inhibition of purified ALK (unknown origin) at 0.1 uM after 60 mins by ELISA
[8] = molecular target: T1, Hepatocyte growth factor receptor; test: Inhibition of purified c-MET (unknown origin) at 0.01 uM after 60 mins by ELISA
[9] = molecular target: Platelet-derived growth factor receptor alpha (Homo sapiens) (UniProt P16234); test: Inhibition of purified PDGFRalpha (unknown origin) at 1 uM after 60 mins by ELISA
[10] = molecular target: Tyrosine-protein kinase ABL1 (Homo sapiens) (UniProt P00519); test: Inhibition of purified ABL (unknown origin) at 1 uM after 60 mins by ELISA
[11] = molecular target: Proto-oncogene tyrosine-protein kinase receptor Ret (Homo sapiens) (UniProt P07949); test: Inhibition of purified RET (unknown origin) at 1 uM after 60 mins by ELISA
[12] = molecular target: Insulin-like growth factor 1 receptor (Homo sapiens) (UniProt P08069); test: Inhibition of purified IGF1R (unknown origin) at 1 uM after 60 mins by ELISA
[13] = molecular target: T1, Hepatocyte growth factor receptor; test: Inhibition of purified c-MET (unknown origin) at 0.1 uM after 60 mins by ELISA
[14] = molecular target: T1, Hepatocyte growth factor receptor; test: Inhibition of purified c-MET (unknown origin) at 1 uM after 60 mins by ELISA
[15] = molecular target: T2, Vascular endothelial growth factor receptor 2; test: Inhibition of purified VEGFR2 (unknown origin) at 1 uM after 60 mins by ELISA
[16] = molecular target: Platelet-derived growth factor receptor beta (Homo sapiens) (UniProt P09619); test: Inhibition of purified PDGFRbeta (unknown origin) at 1 uM after 60 mins by ELISA
[17] = molecular target: Receptor tyrosine-protein kinase erbB-4 (Homo sapiens) (UniProt Q15303); test: Inhibition of purified ErbB4 (unknown origin) at 1 uM after 60 mins by ELISA
[18] = molecular target: Receptor tyrosine-protein kinase erbB-2 (Homo sapiens) (UniProt P04626); test: Inhibition of purified ErbB2 (unknown origin) at 1 uM after 60 mins by ELISA
[19] = molecular target: T2, Vascular endothelial growth factor receptor 2; test: Inhibition of purified VEGFR2 (unknown origin) at 0.1 uM after 60 mins by ELISA
[20] = molecular target: T2, Vascular endothelial growth factor receptor 2; test: Inhibition of purified VEGFR2 (unknown origin) at 0.01 uM after 60 mins by ELISA
[21] = molecular target: Fibroblast growth factor receptor 1 (Homo sapiens) (UniProt P11362); test: Inhibition of purified FGFR1 (unknown origin) at 1 uM after 60 mins by ELISA
[22] = molecular target: Vascular endothelial growth factor receptor 1 (Homo sapiens) (UniProt P17948); test: Inhibition of purified Flt1 (unknown origin) at 1 uM after 60 mins by ELISA
[23] = molecular target: Ephrin type-A receptor 2 (Homo sapiens) (UniProt P29317); test: Inhibition of purified EPH-A2 (unknown origin) at 1 uM after 60 mins by ELISA

IC50 [1] [nM] | Structure (SMILES) | IC50 [2] [nM] | also measured
> 1000 | Nc1noc2cccc(-c3ccc(NC(=O)C4(C(=O)Nc5cccc(F)c5)CC4)cc3)c12 |  | 
 | Nc1noc2cccc(-c3ccc(NC(=O)C4(C(=O)Nc5ccc(F)cc5F)CC4)cc3)c12 | > 10000 | 
 | Nc1n[nH]c2cccc(-c3ccc(NC(=O)C4(C(=O)Nc5ccc(Cl)cc5)CC4)cc3F)c12 | 990 | 
> 1000 | CN(C)Cc1cc(NC(=O)C2(C(=O)Nc3ccc(F)cc3)CC2)ccc1-c1cccc2[nH]nc(N)c12 |  | 
 | Nc1n[nH]c2cccc(-c3ccc(NC(=O)C4(C(=O)Nc5ccc(F)cc5F)CC4)cc3)c12 | 990 | 
 | Cc1cc(NC(=O)C2(C(=O)Nc3ccc(F)cc3)CC2)ccc1-c1cccc2[nH]nc(N)c12 | 1000 | 
 | Nc1noc2cccc(-c3ccc(NC(=O)C4(C(=O)Nc5ccc(F)cc5)CC4)cc3)c12 | 1200 | IC50 [3]: > 1000 nM
 | CN1CCN(Cc2cc(NC(=O)C3(C(=O)Nc4ccc(-c5cccc6[nH]nc(N)c56)cc4)CC3)ccc2Cl)CC1 | > 10000 | 
> 1000 | CN1CCN(c2ccc(NC(=O)C3(C(=O)Nc4ccc(-c5cccc6onc(N)c56)cc4)CC3)cc2F)CC1 |  | 
 | C[C@@H](Oc1cc(-c2cnn(C3CCNCC3)c2)cnc1N)c1c(Cl)ccc(F)c1Cl [CRIZOTINIB] | 21 | 
> 1000 | Cn1nccc1-c1ccc(NC(=O)C2(C(=O)Nc3ccc(-c4cccc5onc(N)c45)cc3)CC2)cc1 |  | 
> 1000 | Nc1n[nH]c2cccc(-c3ccc(NC(=O)C4(C(=O)Nc5ccc(F)cc5)CC4)c4ccccc34)c12 |  | 
> 1000 | Nc1noc2cccc(-c3ccc(NC(=O)C4(C(=O)Nc5ccc(-c6cnn(C7CCOCC7)c6)cc5)CC4)cc3)c12 |  | 
> 1000 | Cn1cc(-c2ccc(NC(=O)C3(C(=O)Nc4ccc(-c5cccc6onc(N)c56)cc4)CC3)cc2)cn1 |  | 
 | Nc1n[nH]c2cccc(-c3ccc(NC(=O)C4(C(=O)Nc5ccc(F)cc5)CC4)cc3)c12 | 820 | 
> 1000 | Nc1noc2cccc(-c3ccc(NC(=O)C4(C(=O)Nc5ccc(-c6cnn(C7CCNCC7)c6)cc5)CC4)cc3)c12 |  | 
 | Nc1noc2cccc(-c3ccc(NC(=O)C4(C(=O)Nc5ccc(Cl)cc5)CC4)cc3)c12 | 6700 | 
 | Nc1noc2cccc(-c3ccc(NC(=O)C4(C(=O)Nc5ccc(F)c(F)c5)CC4)cc3)c12 | > 10000 | 
1.8 | Nc1n[nH]c2cccc(-c3ccc(NC(=O)C4(C(=O)Nc5ccc(F)cc5)CC4)cc3F)c12 | 180 | inhibition [4]: 2.5%; inhibition [5]: 64.9%; inhibition [6]: 11.8%; inhibition [7]: 36.2%; inhibition [8]: 69.7%; inhibition [9]: 62.5%; inhibition [10]: 9.8%; inhibition [11]: 66.1%; inhibition [12]: 45.3%; inhibition [13]: 100%; inhibition [14]: 100%; inhibition [15]: 100%; inhibition [16]: 59.3%; inhibition [17]: 3%; inhibition [18]: 0%; inhibition [19]: 89.9%; inhibition [20]: 45.8%; inhibition [21]: 21.5%; inhibition [22]: 40.8%; inhibition [23]: 38.4%
 | Nc1noc2cccc(-c3ccc(NC(=O)CC(=O)Nc4ccc(F)cc4)cc3)c12 | > 10000 | 
> 1000 | CC(C)(C(=O)Nc1ccc(F)cc1)C(=O)Nc1ccc(-c2cccc3onc(N)c23)cc1 |  | 
> 1000 | COc1cc(NC(=O)C2(C(=O)Nc3ccc(F)cc3)CC2)ccc1-c1cccc2[nH]nc(N)c12 |  | 
 | Cc1ccc(NC(=O)C2(C(=O)Nc3ccc(-c4cccc5[nH]nc(N)c45)c(F)c3)CC2)cc1 | 910 | 
> 1000 | CC(C)C(C(=O)Nc1ccc(F)cc1)C(=O)Nc1ccc(-c2cccc3onc(N)c23)cc1 (stereo unspecified) |  | 
> 1000 | CC(=O)c1ccc(-c2ccc(NC(=O)C3(C(=O)Nc4ccc(-c5cccc6onc(N)c56)cc4)CC3)cc2)s1 |  | 
 | Nc1noc2cccc(-c3ccc(NC(=O)C4(C(=O)Nc5ccc(F)cc5)CC4)cc3F)c12 | 900 | 
> 1000 | COc1cc(NC(=O)C2(C(=O)Nc3ccc(-c4cccc5onc(N)c45)cc3)CC2)cc(OC)c1OC |  | 
 | Nc1n[nH]c2cccc(-c3ccc(NC(=O)C4(C(=O)Nc5ccc(F)cc5)CC4)c(F)c3)c12 | 510 | 
 | Cc1ccc(NC(=O)C2(C(=O)Nc3ccc(-c4cccc5onc(N)c45)cc3)CC2)cc1 | 6300 | 
